Assay results: patent publication US20220218630A1, “METHODS AND FORMULATIONS FOR TREATING VISION DISORDERS” (JeniVision Inc., priority 2019, published 2022)

Legend:
[1] = test system: monkey longitudinal ciliary muscle; experiment: Isolated monkey longitudinal ciliary muscle preparation contracted by carbachol (tissue bath); type: cell-based; conditions: for contractile effects of a further application of carbachol following wash-out: after wash-out of drug, carbachol re-applied; for effect on ciliary muscle tone: drug added cumulatively 10^−8 M to 10^−5 M
Procedure: A total of 4 longitudinal strips of ciliary muscle were obtained from one monkey eye. Four tissue baths were used concurrently for each experiment. The monkey ciliary muscle preparations were incubated in Krebs bicarbonate buffer, aerated with 95% O2/5% CO2, containing 10^−6 M indomethacin. The preparations were placed under 200 mg tension with adjustment and allowed to equilibrate for 30 minutes. The temperature was maintained at 37° C. throughout the experiment. After equilibration, the four tissue baths received (50 μL×10^−3M) 10^−6 M carbachol (sufficient to produce a mid-level 40-60% maximal response). If 10^−6 M carbachol was insufficient to cause a meaningful contraction, then (50 μL×3×10^−3M) 3×10^−6 M or (50 μL×10^−2M) 10^−5M was used. The contractile response was allowed to become stable. Tissue tension was recorded on a multi-channel electrophysiological recorder.
When cumulative addition of the drug solutions was completed, the drugs were washed-out by flushing through with buffer three times at a selected volume. Four tissue baths again received 10^−6 M (or selected concentration) carbachol and a stable contractile response was established.

[2] = Ocular bioavailability following application to the periorbital skin of cynomolgus monkeys (LC/MS/MS); type: in vivo; conditions: for tiotropium level in ciliary muscle / tiotropium level in plasma: 208 μg to periorbital skin of one eye
Procedure: The animals were euthanized at predetermined time points post-dosing: 1, 2, 4, 24 hours. A blood sample and ocular tissue specimens were then taken and prepared for LC/MS/MS analysis.

[3] = carbachol pre-contracted preparation

For `OCc1cc(C(O)CNCCCCCCOCCCCc2ccccc2)ccc1O` (stereo not shown) [salmeterol], the “contractile effects of a further application of carbachol following wash-out” value [1] was “blunted”, the “effect on ciliary muscle tone” value [1, 3] was “dose-related decrease” and the “access to the ciliary muscle” value ([2]; cynomolgus monkey, in vivo) was “pharmacologically active concentrations”. The systemic exposure ([2]; cynomolgus monkey, in vivo) was “absent”.
In the case of `C[N+]1(C)[C@@H]2C[C@@H](OC(=O)C(O)(c3cccs3)c3cccs3)C[C@H]1[C@@H]1O[C@@H]12` [tiotropium], the “contractile effects of a further application of carbachol following wash-out” value [1] is reported as “blunted”, the “effect on ciliary muscle tone” value [1, 3] is reported as “dose-related decrease” and the magnitude of relaxation ([1]; carbachol pre-contracted preparation, tiotropium compared with salmeterol) is reported as “greater than that recorded for salmeterol”. For the same compound, the “tiotropium level in ciliary muscle” value ([2]; 1 hr post-dosing) was 49 nM, the “tiotropium level in plasma” value ([2]; 1 hr post-dosing) was 4.5 nM and the “tiotropium level in ciliary muscle” value ([2]; 2 hr post-dosing) was 77 nM. The “tiotropium level in plasma” value ([2]; 2 hr post-dosing) was “BLQ”, the “tiotropium level in ciliary muscle” value ([2]; 4 hr post-dosing) was 5.4 nM and the “tiotropium level in plasma” value ([2]; 4 hr post-dosing) was “BLQ”. The “tiotropium level in ciliary muscle” value ([2]; 24 hr post-dosing) was 0 nM, the “tiotropium level in plasma” value ([2]; 24 hr post-dosing) was “BLQ” and the systemic exposure ([2]; periorbital skin application, non-optimized aqueous formulations) was “minimal”.
